According to ChEMBL document CHEMBL1129583, “Nonclassical 2,4-diamino-8-deazafolate analogues as inhibitors of dihydrofolate reductases from rat liver, Pneumocystis carinii, and Toxoplasma gondii” (J Med Chem, 1996):

Columns and labels:
Pneumocystis carinii = assay: Ratio of inhibitory concentration of rat liver and Pneumocystis carinii DHFR.
Dihydrofolate reductase = molecular target: T1, Dihydrofolate reductase (Rattus norvegicus, UniProt Q920D2)
T1 sequence (Q920D2 whole entry): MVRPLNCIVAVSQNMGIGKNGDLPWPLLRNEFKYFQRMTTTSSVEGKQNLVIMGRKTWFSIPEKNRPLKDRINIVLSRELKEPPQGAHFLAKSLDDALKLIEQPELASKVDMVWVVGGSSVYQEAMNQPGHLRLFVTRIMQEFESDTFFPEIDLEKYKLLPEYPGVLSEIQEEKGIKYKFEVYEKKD
Description: Inhibitory activity against rat liver dihydrofolate reductase.

[1] = molecular target: T2, Bifunctional dihydrofolate reductase-thymidylate synthase (Toxoplasma gondii, UniProt Q07422)
T2 sequence (Q07422 whole entry): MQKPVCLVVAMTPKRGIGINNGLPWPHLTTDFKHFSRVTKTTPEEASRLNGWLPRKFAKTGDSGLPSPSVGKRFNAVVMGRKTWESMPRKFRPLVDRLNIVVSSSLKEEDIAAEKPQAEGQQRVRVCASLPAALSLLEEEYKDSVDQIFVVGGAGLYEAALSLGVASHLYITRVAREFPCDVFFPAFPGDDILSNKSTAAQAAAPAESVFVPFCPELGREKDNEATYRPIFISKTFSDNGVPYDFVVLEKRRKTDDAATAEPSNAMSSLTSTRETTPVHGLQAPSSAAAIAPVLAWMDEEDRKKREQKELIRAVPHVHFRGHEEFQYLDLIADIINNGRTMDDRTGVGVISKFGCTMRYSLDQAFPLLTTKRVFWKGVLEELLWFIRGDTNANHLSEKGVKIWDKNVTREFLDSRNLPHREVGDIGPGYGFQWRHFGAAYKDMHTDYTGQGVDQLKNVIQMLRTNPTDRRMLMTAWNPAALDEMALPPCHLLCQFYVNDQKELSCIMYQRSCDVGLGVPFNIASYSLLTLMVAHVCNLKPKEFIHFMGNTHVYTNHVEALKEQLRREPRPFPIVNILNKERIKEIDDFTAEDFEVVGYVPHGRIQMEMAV
Description: Inhibitory activity against Toxoplasma gondii dihydrofolate reductase.

[2] = pRatio of inhibitory concentration of Rat liver and Pneumocystis carinii DHFR
[3] = Ratio of inhibitory concentration of Rat liver and Pneumocystis carinii DHFR
[4] = Ratio of inhibitory concentration of Rat liver and Toxoplasma gondii DHFR

Row | Structure (SMILES) | Selectivity (Pneumocystis carinii) | IC50 (Dihydrofolate reductase) [nM] | Selectivity [2] | Selectivity [3] | IC50 [1] [nM] | Selectivity [4]
1 | Nc1nc(N)c2nc(CNc3ccccc3)ccc2n1 | 0.15 | 260 |  |  | 85 | 
2 | Nc1nc(N)c2nc(CNc3ccccc3Cl)ccc2n1 | 0.26 | 140 |  |  | 110 | 
3 | COc1ccc(OC)c(NCc2ccc3nc(N)nc(N)c3n2)c1 | 0.06 | 280 |  |  | 120 | 
4 | CN(Cc1ccc2nc(N)nc(N)c2n1)c1ccc(Cl)cc1Cl | 0.12 | 58 |  |  | 50 | 
5 | CN(Cc1ccc2nc(N)nc(N)c2n1)c1ccccc1Cl | 0.57 | 120 |  |  | 15 | 
6 | Nc1nc(N)c2nc(CNc3ccc(Cl)cc3Cl)ccc2n1 | 0.12 | 88 |  |  | 50 | 
7 | COc1ccc(NCc2ccc3nc(N)nc(N)c3n2)cc1OC | 0.07 | 60 |  |  | 90 | 
8 | COc1ccccc1N(C)Cc1ccc2nc(N)nc(N)c2n1 | 0.24 | 120 |  |  | 26 | 
9 | CN(Cc1ccc2nc(N)nc(N)c2n1)c1c(Cl)cc(Cl)cc1Cl | 0.43 | 52 |  |  | 44 | 
10 | COc1cc(NCc2ccc3nc(N)nc(N)c3n2)cc(OC)c1OC | 0.1 | 200 |  |  | 40 | 
11 | Nc1nc(N)c2nc(CNc3c(Cl)cccc3Cl)ccc2n1 |  | 82 | 0.082 |  | 28 | 
12 | COc1ccccc1NCc1ccc2nc(N)nc(N)c2n1 | 0.16 | 420 |  |  | 120 | 
13 | Nc1nc(N)c2nc(CNc3c(Cl)cc(Cl)cc3Cl)ccc2n1 | 0.29 | 570 |  |  | 46 | 
14 | CN(Cc1ccc2nc(N)nc(N)c2n1)c1cccc2ccccc12 | 0.18 | 7.3 |  |  | 18 | 
15 | COc1cc(N(C)Cc2ccc3nc(N)nc(N)c3n2)cc(OC)c1OC | 0.2 |  |  |  |  | 
16 | Nc1nc(N)c2nc(CSc3ccc4ccccc4c3)ccc2n1 | 0.23 | 86 |  |  | 48 | 

Row | Structure (SMILES) | Selectivity (Pneumocystis carinii) | IC50 (Dihydrofolate reductase) [nM] | Selectivity [2] | Selectivity [3] | IC50 [1] [nM] | Selectivity [4]
17 | COc1ccc(OC)c(N(C)Cc2ccc3nc(N)nc(N)c3n2)c1 | 0.24 | 50 |  |  | 25 | 
18 | COc1ccc(SCc2cnc3nc(N)nc(N)c3c2C)cc1 | 0.93 | 520 |  |  | 63 | 
19 | Nc1nc(N)c2nc(CNc3ccc4ccccc4c3)ccc2n1 |  | 210 |  | 0.13 | 160 | 1.31
20 | CN(Cc1ccc2nc(N)nc(N)c2n1)c1cccc(Cl)c1 | 0.032 |  |  |  |  | 
21 | Nc1nc(N)c2nc(CNc3ccc(Cl)c(Cl)c3)ccc2n1 | 0.13 | 54 |  |  | 57 | 
22 | Nc1nc(N)c2nc(CNc3cc(Cl)ccc3Cl)ccc2n1 | 0.13 | 200 |  |  | 91 | 
23 | Nc1nc(N)c2nc(CSc3ccccc3)ccc2n1 | 0.26 | 520 |  |  | 130 | 
24 | COc1ccc(NCc2ccc3nc(N)nc(N)c3n2)cc1 | 0.09 | 73 |  |  | 54 | 
25 | Nc1nc(N)c2nc(CSc3cccc4ccccc34)ccc2n1 | 0.34 | 160 |  |  | 49 | 
26 | CN(Cc1ccc2nc(N)nc(N)c2n1)c1ccc2ccccc2c1 | 0.14 | 7.2 |  |  | 16 | 
27 | CN(Cc1ccc2nc(N)nc(N)c2n1)c1c(Cl)cccc1Cl | 0.28 | 48 |  |  | 30 | 
28 | COc1ccc(NCc2ccc3nc(N)nc(N)c3n2)c(OC)c1 | 0.06 | 320 |  |  | 140 | 
29 | COc1cccc(NCc2ccc3nc(N)nc(N)c3n2)c1 | 0.12 | 200 |  |  | 100 | 
30 | Nc1nc(N)c2nc(CNc3cccc(Cl)c3)ccc2n1 | 0.07 | 140 |  |  | 130 | 
31 | CN(Cc1ccc2nc(N)nc(N)c2n1)c1cc(Cl)c(Cl)c(Cl)c1 | 0.35 | 87 |  |  | 38 | 
32 | Nc1nc(N)c2nc(CSc3ccccc3)cnc2n1 | 25.9 | 246000 |  |  | 770 | 

More lines, main results first:

Row | Selectivity (Pneumocystis carinii) | IC50 (Dihydrofolate reductase) [nM] | Selectivity [2] | Selectivity [3] | Structure (SMILES) | IC50 [1] [nM] | Selectivity [4]
33 | 0.13 | 32 |  |  | CN(Cc1ccc2nc(N)nc(N)c2n1)c1ccc(C(=O)C(F)(F)F)cc1 | 46 | 
34 | 0.06 | 7.5 |  |  | C#CCN(Cc1ccc2nc(N)nc(N)c2n1)c1ccc(C(=O)C(F)(F)F)cc1 | 54 | 
35 | 0.072 | 18 |  |  | COc1ccc(N(C)Cc2ccc3nc(N)nc(N)c3n2)cc1 | 16 | 
36 | 0.1 | 16 |  |  | COc1ccc(N(C)Cc2ccc3nc(N)nc(N)c3n2)c(OC)c1 | 14 | 
37 | 0.02 | 2.7 |  |  | COc1ccc(N(C)Cc2ccc3nc(N)nc(N)c3n2)cc1OC | 9.8 | 
38 | 0.08 | 24 |  |  | CN(Cc1ccc2nc(N)nc(N)c2n1)c1ccccc1 | 8.4 | 
39 | 0.07 | 15 |  |  | C#CCN(Cc1ccc2nc(N)nc(N)c2n1)c1ccc(C(C)=O)cc1 | 20 | 
40 | 0.36 | 35 |  |  | COc1cccc(N(C)Cc2ccc3nc(N)nc(N)c3n2)c1 | 15 | 
41 |  | 40 |  | 0.17 | Nc1nc(N)c2nc(CNc3cccc4ccccc34)ccc2n1 | 26 | 1.54
42 | 0.04 | 5.1 |  |  | CC(=O)c1ccc(N(C)Cc2ccc3nc(N)nc(N)c3n2)cc1 | 15 | 
43 | 0.45 | 17 |  |  | CN(Cc1ccc2nc(N)nc(N)c2n1)c1ccc(Cl)c(Cl)c1 | 27 | 
44 | 0.07 | 44 |  |  | Nc1nc(N)c2nc(CNc3cc(Cl)c(Cl)c(Cl)c3)ccc2n1 | 87 | 
45 | 0.31 | 47 |  |  | CN(Cc1ccc2nc(N)nc(N)c2n1)c1cc(Cl)ccc1Cl | 25 | 
46 | 0.01 | 2.5 |  |  | CC(=O)c1ccc(NCc2ccc3nc(N)nc(N)c3n2)cc1 | 27 | 
